Results from patent US10633348B2, “Methods to treat lymphoplasmacytic lymphoma” (Dana-Farber Cancer Institute, Inc., priority 2013, dated 2020).

How the values were obtained:
Type in all cases: cell-based
[1] = system: MAP2K6
[2] = system: MST2
[3] = system: CaMK1a
[4] = system: NEK9
[5] = system: CSK
[6] = system: MST4, YSK1; assay: KiNativ kinase profiling in A375 cells; settings: Lys2, SEQ ID NO 114, 1.0 μM
[7] = system: CAMK4
[8] = system: MPSK1
[9] = system: PKCa, PKCb; assay: KiNativ kinase profiling in A375 cells; settings: Lys2, SEQ ID NO 153, 1.0 μM
[10] = system: SNRK
[11] = system: AurA
[12] = system: SGK3
[13] = system: CK1a
[14] = system: MAP3K3
[15] = system: LATS1
[16] = system: GSK3A
[17] = system: MSK1 domain1
[18] = system: PI4KA, PI4KAP2; assay: KiNativ kinase profiling in A375 cells; settings: ATP, SEQ ID NO 141, 1.0 μM
[19] = system: CDK6
[20] = system: AurB
[21] = system: CDK7
[22] = system: PYK2
[23] = system: FRK
[24] = system: NDR2
[25] = system: ZC1/HGK, ZC2/TNIK, ZC3/MINK; assay: KiNativ kinase profiling in A375 cells; settings: Lys2, SEQ ID NO 198, 1.0 μM
[26] = system: PRPK
[27] = system: JNK1, JNK2, JNK3; assay: KiNativ kinase profiling in A375 cells; settings: Lys2, SEQ ID NO 67, 1.0 μM
[28] = system: FES
[29] = system: MARK4
[30] = system: PHKG1
[31] = system: CHK1
[32] = system: PEK
[33] = system: PDK1
[34] = system: ITPK1
[35] = system: Hck-pY410; assay: PhosFlow; settings: BCWM.1, Hck-wt and Hck-mu BCWM.1 cells; 0.5 μM and 0.1 μM

With `CCN1CCN(Cc2ccc(NC(=O)c3ccc(C)c(Oc4cc(N)ncn4)c3)cc2C(F)(F)F)CC1` [(A-4), 3-((6-aminopyrimidin-4-yl)oxy)-N-(4-((4-ethylpiperazin-1-yl)methyl)-3-(trifluoromethyl)phenyl)-4-methylbenzamide] the “inhibition of kinase labeling” value [1] was 0.5%, the “inhibition of kinase labeling” value [2] was −6.2% and the “inhibition of kinase labeling” value [3] was 12.4%. The “inhibition of kinase labeling” value [4] was −1.2%, the “inhibition of kinase labeling” value [5] was 15.3% and the “inhibition of kinase labeling” value [6] was 4.6%. For the same compound, the “inhibition of kinase labeling” value [7] was 5.9%, the “inhibition of kinase labeling” value [8] was 16.1% and the “inhibition of kinase labeling” value [9] was 2.3%. The “inhibition of kinase labeling” value [10] was 18.0%, the “inhibition of kinase labeling” value [11] was −16.0% and the “inhibition of kinase labeling” value [12] was −10.2%. For the same compound, the “inhibition of kinase labeling” value [13] was −0.6%, the “inhibition of kinase labeling” value [14] was 3.7% and the “inhibition of kinase labeling” value [15] was 5.4%. For the same compound, the “inhibition of kinase labeling” value [16] was 36.0%, the “inhibition of kinase labeling” value [17] was 5.7% and the “inhibition of kinase labeling” value [18] was 19.3%. For the same compound, the “inhibition of kinase labeling” value [19] was 13.1%, the “inhibition of kinase labeling” value [20] was −51.1% and the “inhibition of kinase labeling” value [21] was 3.9%. The “inhibition of kinase labeling” value [22] was 10.9%, the “inhibition of kinase labeling” value [23] was 91.1% and the “inhibition of kinase labeling” value [24] was −10.9%. For the same compound, the “inhibition of kinase labeling” value [25] was 19.2%, the “inhibition of kinase labeling” value [26] was −13.7% and the “inhibition of kinase labeling” value [27] was 77.2%. The “inhibition of kinase labeling” value [28] was 89.1%, the “inhibition of kinase labeling” value [29] was 2.9% and the “inhibition of kinase labeling” value [30] was −49.0%. For the same compound, the “inhibition of kinase labeling” value [31] was −5.0%, the “inhibition of kinase labeling” value [32] was 9.4% and the “inhibition of kinase labeling” value [33] was 18.8%. The “inhibition of kinase labeling” value [34] was 1.2%.

`CCN1CCN(Cc2ccc(NC(=O)c3ccc(C)c(Oc4ccnc(Nc5cnn(C)c5)n4)c3)cc2C(F)(F)F)CC1` [(A-14), N-(4-((4-ethylpiperazin-1-yl)methyl)-3-(trifluoromethyl)phenyl)-4-methyl-3-((2-((1-methyl-1H-pyrazol-4-yl)amino)pyrimidin-4-yl)oxy)benzamide] was tested, and the “Hck phosphorylation” value [35] was “inhibit”.
